From US9402821B2, “Methods and pharmaceutical compositions for treatment of cystic fibrosis” (INSERM (Institut National de la sante et de la Recherche …, priority 2012, dated 2016)
“Also recorded” adds a separate entry of the source.

What was measured:
Assay type in all cases: cell-based
[1] = tested on: AP-1 transcriptional activity; experiment: AP-1 firefly luciferase reporter assay, TNFα-stimulated HeLa cells; settings: 500 μM, TNFα 10 ng/ml
Protocol: HeLa cells were transiently transfected by AP-1 firefly luciferase reporter and renilla luciferase reference. HeLa control cells were pre-treated with diluent (0.5%), ibuprofen (500 μM) or sulindac (500 μM) for 1 h and stimulated for 1 h with 10 ng/ml TNFα. After removal of TNFα, cells were incubated for 4 h with pharmacological treatment. The AP-1 transcriptional activity in cells treated with ibuprofen+TNFα and sulindac +TNFα was expressed in percent of diluent+TNFα. Results of three independent experiments, means±SEM. Unilateral paired t test: ** p<0.01. To assay the transcriptional activity of AP-1, pAP1Luc, a luciferase reporter plasmid containing five sequential AP-1 binding sites upstream of a minimum promoter element, was used. […] To normalize transfection efficiency, a renilla luciferase reporter construct (pRL-TK, Promega) was co-transfected with each of the firefly luciferase constructs. To induced AP-1 activity, cells were exposed to TNFα (10 ng/mL) for 1 hour. Cells were pre- and treated with sulindac, ibuprofen or vehicule control one hour before and four hours after this induction.

p65 = experiment: Western blot of nuclear p65 after TNFα; settings: HeLa control cells; 500 μM 1 h pre-treatment; TNFα 10 ng/ml 30 min
Protocol: HeLa control cells were pre-treated with diluent (0.5%) or sulindac (500 μM) for 1 h and stimulated or not with 10 ng/ml TNFα for 30 min. Nuclear and cytosolic fractions were obtained by differential centrifugation. A. Analysis by western blot of cytosolic IKb quantity. The Iκb quantity was expressed in percent of control. […] B. Analysis by western blot of nuclear p65 quantity. Nuclear p65 quantity was expressed in percent of diluents+TNFα.
Nuclear and cytosolic fraction was obtained by differential centrifugation. Briefly, cells were lyses in buffer C (10 mM Hepes, 60 mM KCl, 1 mM EDTA, 7.8% NP40, 100 mM DTT, pH 7.6). After centrifugation, nucleus pellet were lyses in buffer N (27 mM Tris, 566 mM NaCl, 2 mM MgCl2, 1.3 mM EDTA, pH 8). Aliquots of fraction (30 μg protein) were separated by SDS-PAGE and transferred on PVDF membrane. The western blots were probed with mouse monoclonal antibodies specific for IκB or p65 (Santa-Cruz) 2 h at room temperature.

IL-8 secretion = experiment: IL-8 release into supernatant of cell cultures; settings: TNFα; Beas2B, Calu-3 and heterologous HeLa systems (FIG. 2C)
Protocol: (§1) Cells were transiently transfected by the short IL-8 promoter-firefly luciferase reporter and renilla luciferase reference and inflammation was induced by 10 ng/ml TNFα for 1 h. A. HeLa cells were pre-treated with diluent or different doses of sulindac 1 h before inflammation induction and 4 h after. IL-8 promoter activity in cells treated with sulindac+TNFα was expressed in percent of diluent+TNFα. B. After treatment, HeLa Ctr cells were lysed with TRIzol (Invitrogen). Total RNA was extracted, and 1 μg of total RNA was reverse transcribed with a reverse transcription kit. IL-8 mRNA expression was quantified by real-time quantitative PCR (qPCR). The comparative threshold cycle (CT) method was used for relative quantification of PCR products after IL-8 was normalised to TBP (ΔCt=CtIL-8−CtTBP). IL-8 mRNA data in treated samples were expressed in fold changes over controls: fold changetreated sample=2^−ΔΔCt (with ΔΔCt=ΔCtreated sample−ΔCtcontrol). C After treatment, IL-8 in supernatant was measured by ELISA. The IL-8 stimulation of cells treated with test drug +TNFα were expressed as fold compared to drug −TNFα. […]
IL-8 secretion into the supernatant of cells cultures was measured with the IMMULITE 1000 Automated Analyser (Diagnostic Products Corp) and the commercially available Immulite chemiluminescent enzyme immunometric assays (Immulite®) according to the manufacturer's instructions.

IL-8 promoter = IL-8 promoter luciferase reporter / IL-8 mRNA qPCR, TNFα-stimulated cells; settings: TNFα 10 ng/ml; bronchial epithelial cells and heterologous HeLa models (FIGS. 2A, B)
Protocol: as §1, with “IL-8 mRNA data in treated samples were expressed in fold changes over controls: fold changetreated sample=2^−ΔΔCt (with ΔΔCt=ΔCtreated sample−ΔCtcontrol).” left out
Cells were lysed with the Passive Lysis Buffer (Promega), and luciferase activity in the cellular extracts was determined by the Dual Luciferase Assay System (Promega) using a luminometer (Tristar; Berthold). The results were normalized to those obtained with the Renilla luciferase reference plasmid used to control the transfection efficiency, and the values were expressed as luminescence intensity (Luciferase/Renilla). […]

CC1=C(CC(=O)O)c2cc(F)ccc2/C1=C\c1ccc([S+](C)[O-])cc1 (stereo not shown) [sulindac, (Z)-5-fluoro-2-methyl-1-[p-(methylsulfinyl)benzylidene]-indene-3-acetic acid]
AP-1 transcriptional activity induced by TNF [1]: causes a decrease in the induction | nuclear translocation of NF-κB (nuclear p65 quantity) (p65): not significantly modified; also recorded: did not prevent the nuclear translocation of NF-κB | IL-8 secretion (IL-8 secretion): decrease of IL-8 secretion | IL-8 transcription (IL-8 promoter): decreased IL-8 transcription
